From patent publication US9586951B2 (FUJIFILM Corporation, priority 2013, dated 2017)

How the values were obtained:
[1] = molecular target: T1, ATM (Homo sapiens, UniProt Q13315); assay: ATM inhibition test (phosphorylation of Chk2 generated by ionizing radiation, AlphaScreen SureFire); format: cell-based; conditions: phosphorylated Chk2 in NCI-H460 cells, ionizing radiation 8Gy, 1 hour after test compound treatment; read-out: ATM inhibitory activity
T1 construct: detecting phosphorylation of Chk2 in a human non-small cell lung cancer cell line NCI-H460 (ATCC company); host or cells: NCI-H460 human non-small cell lung cancer cells
T1 sequence (Q13315 whole entry): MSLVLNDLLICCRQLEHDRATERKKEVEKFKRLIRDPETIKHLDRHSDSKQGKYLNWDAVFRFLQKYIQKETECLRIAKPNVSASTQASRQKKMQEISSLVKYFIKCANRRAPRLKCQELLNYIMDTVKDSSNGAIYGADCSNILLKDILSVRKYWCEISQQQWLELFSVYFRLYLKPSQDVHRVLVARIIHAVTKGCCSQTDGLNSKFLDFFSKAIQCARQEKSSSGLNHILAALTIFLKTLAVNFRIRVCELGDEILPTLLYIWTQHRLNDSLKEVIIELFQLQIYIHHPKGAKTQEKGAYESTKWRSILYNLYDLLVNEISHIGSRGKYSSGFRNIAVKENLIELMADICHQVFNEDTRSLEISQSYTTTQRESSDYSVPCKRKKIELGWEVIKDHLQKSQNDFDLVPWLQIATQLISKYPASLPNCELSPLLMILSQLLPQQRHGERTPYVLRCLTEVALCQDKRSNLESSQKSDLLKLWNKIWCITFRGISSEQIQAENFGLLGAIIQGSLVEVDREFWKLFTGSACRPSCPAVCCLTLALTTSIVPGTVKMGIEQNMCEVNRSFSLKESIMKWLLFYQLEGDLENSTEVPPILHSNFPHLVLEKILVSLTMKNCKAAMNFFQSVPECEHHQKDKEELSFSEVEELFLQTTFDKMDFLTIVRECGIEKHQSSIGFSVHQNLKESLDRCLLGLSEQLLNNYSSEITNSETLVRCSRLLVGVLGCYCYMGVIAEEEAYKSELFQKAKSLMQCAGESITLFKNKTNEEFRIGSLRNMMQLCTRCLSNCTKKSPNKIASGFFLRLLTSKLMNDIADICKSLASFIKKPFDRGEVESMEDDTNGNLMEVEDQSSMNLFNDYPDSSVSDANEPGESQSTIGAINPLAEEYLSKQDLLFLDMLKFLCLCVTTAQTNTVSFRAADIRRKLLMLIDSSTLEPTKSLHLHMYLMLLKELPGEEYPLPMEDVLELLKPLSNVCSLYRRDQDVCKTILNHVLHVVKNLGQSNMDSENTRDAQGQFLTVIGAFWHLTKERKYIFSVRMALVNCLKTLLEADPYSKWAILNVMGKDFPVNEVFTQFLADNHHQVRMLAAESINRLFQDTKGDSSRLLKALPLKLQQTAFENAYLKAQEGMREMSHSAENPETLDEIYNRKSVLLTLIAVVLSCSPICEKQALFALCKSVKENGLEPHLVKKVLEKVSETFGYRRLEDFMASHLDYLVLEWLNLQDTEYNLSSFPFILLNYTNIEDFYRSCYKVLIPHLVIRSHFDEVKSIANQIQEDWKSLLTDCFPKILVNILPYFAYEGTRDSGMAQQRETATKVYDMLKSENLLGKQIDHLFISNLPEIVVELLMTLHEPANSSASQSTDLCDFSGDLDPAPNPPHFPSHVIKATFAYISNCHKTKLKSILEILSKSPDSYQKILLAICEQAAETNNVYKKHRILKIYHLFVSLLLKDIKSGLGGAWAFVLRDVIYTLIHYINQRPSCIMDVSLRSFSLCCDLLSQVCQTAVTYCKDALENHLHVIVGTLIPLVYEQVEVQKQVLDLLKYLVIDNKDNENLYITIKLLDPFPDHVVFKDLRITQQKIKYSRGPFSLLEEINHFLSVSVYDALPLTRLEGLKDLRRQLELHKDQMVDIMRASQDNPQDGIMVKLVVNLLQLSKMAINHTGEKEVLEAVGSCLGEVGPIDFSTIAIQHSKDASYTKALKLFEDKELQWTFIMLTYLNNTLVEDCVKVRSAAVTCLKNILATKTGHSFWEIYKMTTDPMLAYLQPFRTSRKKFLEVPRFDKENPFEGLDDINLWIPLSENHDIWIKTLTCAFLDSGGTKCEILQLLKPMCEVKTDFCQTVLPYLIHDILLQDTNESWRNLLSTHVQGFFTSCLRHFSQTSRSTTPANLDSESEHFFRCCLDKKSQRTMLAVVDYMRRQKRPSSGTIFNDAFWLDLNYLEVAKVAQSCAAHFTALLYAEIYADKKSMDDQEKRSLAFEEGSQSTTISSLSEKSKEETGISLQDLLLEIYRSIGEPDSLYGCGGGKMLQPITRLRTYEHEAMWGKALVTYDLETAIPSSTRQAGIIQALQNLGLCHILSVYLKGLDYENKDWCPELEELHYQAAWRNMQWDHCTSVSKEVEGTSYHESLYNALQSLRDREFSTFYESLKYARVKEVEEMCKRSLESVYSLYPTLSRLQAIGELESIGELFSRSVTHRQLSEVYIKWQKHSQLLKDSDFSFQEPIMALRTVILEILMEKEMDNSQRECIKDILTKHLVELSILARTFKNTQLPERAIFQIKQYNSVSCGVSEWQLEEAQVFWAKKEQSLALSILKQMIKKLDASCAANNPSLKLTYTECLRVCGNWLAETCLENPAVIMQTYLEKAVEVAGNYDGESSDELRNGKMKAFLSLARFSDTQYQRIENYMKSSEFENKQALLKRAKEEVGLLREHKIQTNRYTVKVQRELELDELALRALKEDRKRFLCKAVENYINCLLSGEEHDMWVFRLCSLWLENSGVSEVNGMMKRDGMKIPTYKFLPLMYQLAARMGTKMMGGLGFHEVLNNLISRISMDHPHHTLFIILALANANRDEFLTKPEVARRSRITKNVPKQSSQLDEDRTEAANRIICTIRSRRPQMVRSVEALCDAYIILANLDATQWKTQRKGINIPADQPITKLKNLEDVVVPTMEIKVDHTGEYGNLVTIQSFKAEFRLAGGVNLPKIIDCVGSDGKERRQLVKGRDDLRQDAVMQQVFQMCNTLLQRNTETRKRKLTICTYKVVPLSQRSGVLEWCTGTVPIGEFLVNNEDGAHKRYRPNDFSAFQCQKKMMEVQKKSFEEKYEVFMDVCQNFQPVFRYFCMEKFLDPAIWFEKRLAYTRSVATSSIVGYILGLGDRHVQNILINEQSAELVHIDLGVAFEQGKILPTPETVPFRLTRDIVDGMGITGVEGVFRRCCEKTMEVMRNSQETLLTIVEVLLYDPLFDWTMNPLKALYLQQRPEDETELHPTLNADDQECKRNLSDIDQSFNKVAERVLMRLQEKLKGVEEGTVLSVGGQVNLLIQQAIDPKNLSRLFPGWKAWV
How it was run: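 In NCI-H460 cells, radiation-triggered Chk2 phosphorylation (8Gy, 1 h) is detected by AlphaScreen SureFire following 1 h compound exposure.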

[2] = test system: human non-small cell lung cancer cell line NCI-H460; assay: Cell proliferation inhibition test by sensitivity-enhancing to ionizing radiation (Cell Titer Glo); format: cell-based; conditions: concentration in which SER became 2, NCI-H460 cells, ionizing radiation 2 Gy, cultured 120 hour
How it was run: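 Radiosensitisation measured as SER, a ratio of Cell Titer Glo luminescence in irradiated vs unirradiated plates relative to DMSO; SER2, the concentration yielding SER 2, came from sigmoidal regression. Compound (0.1% DMSO) was given 24 h post-seeding, 2 Gy applied 30 min later, then 120 hour culture at 37° C.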

Structure (SMILES) | IC50 [1] | SER2 (concentration at which the radiation sensitivity-enhancement ratio reaches 2) [2] | SER2 (concentration at which the radiation sensitivity-enhancement ratio reaches 2) ([2]; Homo sapiens, NCI-H460, 120 h)
Cc1cccc(C(Nc2ccc3c(c2)Sc2cccc(-c4cc(N5CCOCC5)cc(=O)[nH]4)c2S3)C2CCCN(C)C2)n1 (single isomer, unassigned) [Example 1-22-5, 6-(7-(((1-Methylpiperidin-3-yl)(6-methylpyridin-2-yl)methyl)amino)thianthren-1-yl)-4-morpholino pyridin-2 (1H)-one] | < 100 nM | 100 to 500 nM | –
COc1ccnc(C(C)Nc2ccc3c(c2)Sc2cccc(-c4cc(N5CCOCC5)cc(=O)[nH]4)c2S3)n1 (stereo not shown) [Example 1-12-77, 6-(7-((1-(4-Methoxypyrimidin-2-yl)ethyl)amino)thianthren-1-yl)-4-morpholino pyridin-2(1H)-one] | < 100 nM | – | 100 to 500 nM
C=C(C)c1cncc(CNc2ccc3c(c2)Cc2cccc(-c4cc(N5CCOCC5)cc(=O)[nH]4)c2O3)c1 [Example 2-14-10, 4-Morpholino-6-(7-(((5-(prop-1-en-2-yl)pyridin-3-yl)methyl)amino)-9H-xanthen-4-yl)pyridin-2 (1H)-one] | < 100 nM | – | 100 to 500 nM
Cc1ccc(C(Nc2ccc3c(c2)Sc2cccc(-c4cc(N5CCOCC5)cc(=O)[nH]4)c2S3)C2CN(C)CCO2)nc1 (single isomer, unassigned) [Example 1-52-1, 6-(7-(((4-methylmorpholin-2-yl)(5-methylpyridin-2-yl)methyl)amino)thianthren-1-yl)-4-morpholinopyridin-2(1H)-one] | < 100 nM | – | < 100 nM
CC(Nc1ccc2c(c1)Sc1cccc(-c3cc(N4CCOCC4)cc(=O)[nH]3)c1S2)c1nccc(CF)n1 (stereo not shown) [Example 1-12-85, 6-(7-((1-(4-(Fluoromethyl)pyrimidin-2-yl)ethyl)amino)thianthren-1-yl)-4-morpholino pyridin-2(1H)-one] | < 100 nM | – | < 100 nM
COc1cncc(CNc2ccc3c(c2)Sc2cccc(-c4cc(N5CCOCC5)cc(=O)[nH]4)c2O3)c1 [Example 4-8-1, 6-(8-(((5-Methoxypyridin-3-yl)methyl)amino)phenoxathiin-4-yl)-4-morpholinopyridin-2(1H)-one] | < 100 nM | – | 100 to 500 nM
Cc1ccc(C(Nc2ccc3c(c2)Sc2cccc(-c4cc(N5CCOCC5)cc(=O)[nH]4)c2S3)C2CCN(C)CC2)nc1 (single isomer, unassigned) [Example 1-51-2] | < 100 nM | 100 to 500 nM | –
Cc1ccnc(C(C)Nc2ccc3c(c2)Sc2cccc(-c4cc(N5CCOCC5)cc(=O)[nH]4)c2S3)c1 (single isomer, unassigned) [Example 1-12-135-2, 6-(7-((1-(4-methylpyridin-2-yl)ethyl)amino)thianthren-1-yl)-4-morpholinopyridin-2(1H)-one] | < 100 nM | 100 to 500 nM | –
Cc1cccc(C(C)Nc2ccc3c(c2)Sc2cccc(-c4cc(N5CCOCC5)cc(=O)[nH]4)c2S3)n1 (single isomer, unassigned) [Example 1-12-136-1, 6-(7-((1-(6-methylpyridin-2-yl)ethyl)amino)thianthren-1-yl)-4-morpholinopyridin-2(1H)-one] | < 100 nM | – | < 100 nM
CNCC(Nc1ccc2c(c1)Sc1cccc(-c3cc(N4CCOCC4)cc(=O)[nH]3)c1S2)c1cc(C)ccn1 (stereo not shown) [Example 1-19-3, 6-(7-((2-(Methylamino)-1-(4-methylpyridin-2-yl)ethyl)amino)thianthren-1-yl)-4-morpholinopyridin-2(1H)-one] | < 100 nM | – | 100 to 500 nM
CC(CN1C[C@@H](C)O[C@@H](C)C1)Nc1ccc2c(c1)Sc1cccc(-c3cc(N4CCOCC4)cc(=O)[nH]3)c1S2 (stereo partly drawn) [Example 1-13-12, 6-(7-((1-((2S,6R)-2,6- Dimethylmorpholino)propan-2-yl)amino)thianthren-1-yl)-4-morpholino pyridin-2(1H)-one] | < 100 nM | – | 100 to 500 nM
